Source: patent publication US10921324B2, “Compositions and methods related to the methylation of histone H1.0 protein” (Aelan Cell Technologies, Inc., priority 2016, dated 2021)
“Also recorded” adds a separate entry of the source.

Tested on: H1.0K180me2 appearance in SR hADSCs
Experiment: Western blot of H1.0K180me2 in hADSCs treated with bleomycin after rapamycin or everolimus pretreatment
Assay type: cell-based, human
Settings: 500 nM pretreatment for 24 hours, then bleomycin 2 hours
Excerpt: Material for western blot analysis (cultured cells or tissue) was lysed in ice-cold RIPA lysis buffer (Thermo Scientific 89900) and sonicated using a Covaris S2 sonicator (10% duty cycle, Intensity 5, Bursts per minute 100, 120 seconds). Total protein concentration in each sample was quantified using Quick Start Bradford 1× Dye Reagent (BioRad, 5000205) following manufacturer's protocol. Samples were then mixed with NuPAGE LDS sample loading buffer (ThermoFisher, NP0007) and NuPAGE sample reducing buffer (ThermoFisher, NP0004), and heat denatured at 70° C. for 10 minutes. Proteins were separated on 4-12% precast polyacrylamide gels (ThermoFisher, NP0321) by electrophoresis and transferred to 0.45 μm nitrocellulose membrane. […] Proteins were detected with HRP secondary antibodies listed above for 1 hour at RT followed by ECL Western Blotting Substrate (ThermoFisher, 32106) using manufacturer's instructions. […]
To test if rapamycin derivatives can block H1.0K180me2 appearance upon DNA damage, SR hADSCs were treated with bleomycin for 2 hours with or without pretreatment with rapamycin or everolimus (a derivative of rapamycin) for 24 hours. Cells were then lysed and analyzed be western blot for H1.0K180me2, γH2A.X and β-Actin, according to methods described in Example 1.

CO[C@H]1C[C@@H]2CC[C@@H](C)[C@@](O)(O2)C(=O)C(=O)N2CCCC[C@H]2C(=O)O[C@H]([C@H](C)C[C@@H]2CC[C@@H](OCCO)[C@H](OC)C2)CC(=O)[C@H](C)/C=C(\C)[C@@H](O)[C@@H](OC)C(=O)[C@H](C)C[C@H](C)/C=C/C=C/C=C/1C [everolimus]
appearance of H1.0K180me2 upon bleomycin treatment: blocks H1.0K180me2 deposition on chromatin; also recorded: blocks H1.0K180me2 appearance
